Numbers after ± are expanded uncertainties.

The conditions of the series: 101.33 kPa, Liquid; for speed of sound: Sing-around technique in a fixed-path interferometer.

`CCCCCO` [pentan-1-ol]: the mass density (283.15 K) was 821.79 ± 0.92 kg/m3, the mass density (298.15 K) is listed as 810.83 ± 0.95 kg/m3 and the mass density (313.15 K) is 799.8 ± 0.98 kg/m3. The speed of sound came out at 1325.9 ± 1.3 m/s (283.15 K), 1274.1 ± 1.2 m/s (298.15 K) and 1225.5 ± 1.2 m/s (313.15 K).

Consider `CCCC(C)O` (stereo not drawn) [pentan-2-ol], for which the mass density turned out to be 816.77 ± 1.9 kg/m3 (283.15 K), 804.97 ± 1.9 kg/m3 (298.15 K) and 792.42 ± 2 kg/m3 (313.15 K). The speed of sound stood at 1286.7 ± 2.1 m/s (283.15 K), 1232.6 ± 2.1 m/s (298.15 K) and 1168.1 ± 2.1 m/s (313.15 K).

Regarding `C=C1CCC2CC1C2(C)C` (stereo not drawn) [β-pinene], the mass density (283.15 K) was determined as 879.07 ± 0.77 kg/m3, the mass density (298.15 K) was 867.11 ± 0.8 kg/m3 and the mass density (313.15 K) is on record as 854.87 ± 0.83 kg/m3. For the same molecule, the speed of sound is 1354.3 ± 1.3 m/s (283.15 K), 1295.6 ± 1.3 m/s (298.15 K) and 1236.3 ± 1.2 m/s (313.15 K).

Source of the values: the NIST ThermoML archive (doi:10.1021/je060210c).
